Measurements taken from patent US20220323406A1, “METHODS AND COMPOSITIONS FOR DIFFERENTIATING STEM CELLS” (Massachusetts Institute of Technology, priority 2019, published 2022).
Where a name gives a salt, the structure may show the parent alone.

How the values were obtained:
[1] = test system: ENR+CD organoids (ISC to Paneth cell differentiation); test: Primary screen: basal (non-stimulated) lysozyme secretion LYZ.NS, 2.5-D 384-well ENR+CD organoid differentiation; format: cell-based, mouse; conditions: primary screen; for Dose.FC.LYZ.NS: FC relative to plate median; for Z.LYZ.NS: standard z score
Text: (§1) High-throughput screening.

[2] = test system: ENR+CD organoids (ISC to Paneth cell differentiation); test: Primary screen: CCh-stimulated lysozyme secretion LYZ.S, 2.5-D 384-well ENR+CD organoid differentiation; format: cell-based, mouse; conditions: primary screen, FC relative to plate median
Text: as §1

ENR+CD organoids = test: Primary screen: ATP (CellTiter-Glo 3D, CTG) cell number/viability, 2.5-D 384-well ENR+CD organoids; conditions: primary screen; for Dose.FC.CTG: FC relative to plate median; for Z.CTG: standard z score;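 as to all read-outs here: compounds given at plating and again on day 3 over a 6-day differentiation from ENR+CV stem-cell-enriched precursors, ATP measured on day 6, plate median as control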

Row | SMILES | Dose.FC.LYZ.NS ([1]; dose 0.08 uM) | Z.LYZ.NS ([1]; dose 0.08 uM) | Dose.FC.LYZ.NS ([1]; dose 0.40 uM) | Z.LYZ.NS ([1]; dose 0.40 uM) | Dose.FC.LYZ.NS ([1]; dose 2.00 uM) | Z.LYZ.NS ([1]; dose 2.00 uM) | Dose.FC.LYZ.NS ([1]; dose 10.00 uM) | Z.LYZ.NS ([1]; dose 10.00 uM) | Dose.FC.LYZ.S ([2]; dose 0.08 uM) | Dose.FC.LYZ.S ([2]; dose 0.40 uM) | Dose.FC.LYZ.S ([2]; dose 2.00 uM) | Dose.FC.LYZ.S ([2]; dose 10.00 uM) | Dose.FC.CTG (ENR+CD organoids; dose 0.08 uM) | Z.CTG (ENR+CD organoids; dose 0.08 uM) | Dose.FC.CTG (ENR+CD organoids; dose 0.40 uM) | Z.CTG (ENR+CD organoids; dose 0.40 uM) | Dose.FC.CTG (ENR+CD organoids; dose 2.00 uM) | Z.CTG (ENR+CD organoids; dose 2.00 uM) | Dose.FC.CTG (ENR+CD organoids; dose 10.00 uM) | Z.CTG (ENR+CD organoids; dose 10.00 uM)
1 | COc1c(C)c(C(=O)c2ccc(N)c(C(=O)[O-])c2)n2ccccc12.[Na+] [SSR128129E] | 0.093 log2 fold change | 0.807 | 0.039 log2 fold change | 0.339 | 0.030 log2 fold change | 0.257 | −0.098 log2 fold change | −0.850 | 0.086 log2 fold change | 0.122 log2 fold change | 0.023 log2 fold change | −0.095 log2 fold change | 0.088 log2 fold change | 0.210 | 0.228 log2 fold change | 0.545 | 0.122 log2 fold change | 0.291 | −0.026 log2 fold change | −0.063
2 | Cc1ccc(S(=O)(=O)Cc2nc(-c3ccc(C(=O)NCc4cccnc4)cc3)oc2C)cc1 [STF-118804] | −0.155 log2 fold change | −1.349 | −0.210 log2 fold change | −1.824 | −0.172 log2 fold change | −1.502 | −0.177 log2 fold change | −1.541 | −0.257 log2 fold change | −0.212 log2 fold change | −0.271 log2 fold change | −0.300 log2 fold change | −0.151 log2 fold change | −0.360 | −1.401 log2 fold change | −3.346 | −0.916 log2 fold change | −2.189 | −1.338 log2 fold change | −3.195
3 | Cc1[nH]c(/C=C2\C(=O)Nc3ccc(S(=O)(=O)N(C)c4cccc(Cl)c4)cc32)c(C)c1C(=O)N1CCN(C)CC1 [SU11274] | 0.084 log2 fold change | 0.735 | 0.120 log2 fold change | 1.043 | 0.005 log2 fold change | 0.047 | −0.207 log2 fold change | −1.804 | 0.115 log2 fold change | 0.298 log2 fold change | 0.008 log2 fold change | −0.300 log2 fold change | 0.357 log2 fold change | – | 0.270 log2 fold change | – | 0.058 log2 fold change | – | −0.818 log2 fold change | –
4 | O=C(/C=C/c1ccccc1)NC(NC(=S)Nc1ccc(Cl)cc1)C(Cl)(Cl)Cl (stereo not drawn) [Sal003] | 0.116 log2 fold change | 1.013 | 0.183 log2 fold change | 1.595 | 0.077 log2 fold change | 0.670 | −0.246 log2 fold change | −2.142 | 0.092 log2 fold change | 0.067 log2 fold change | 0.040 log2 fold change | −0.408 log2 fold change | 0.191 log2 fold change | 0.456 | 0.155 log2 fold change | 0.370 | 0.196 log2 fold change | 0.468 | −0.829 log2 fold change | −1.981
5 | Cn1cnc2c(F)c(Nc3ccc(Br)cc3Cl)c(C(=O)NOCCO)cc21 [Selumetinib (AZD6244)] | 0.021 log2 fold change | 0.181 | −0.022 log2 fold change | −0.188 | −0.097 log2 fold change | −0.847 | −0.140 log2 fold change | −1.220 | 0.004 log2 fold change | −0.047 log2 fold change | −0.175 log2 fold change | −0.211 log2 fold change | 0.164 log2 fold change | 0.393 | −0.165 log2 fold change | −0.395 | −0.257 log2 fold change | −0.613 | −0.852 log2 fold change | −2.035
6 | CC(C)[C@H](O)C(=O)N[C@@H](C)C(=O)N[C@@H]1C(=O)N(C)CCc2ccccc21 [Semagacestat (LY450139)] | 0.017 log2 fold change | 0.151 | −0.021 log2 fold change | −0.181 | −0.081 log2 fold change | −0.704 | −0.108 log2 fold change | −0.942 | −0.014 log2 fold change | −0.006 log2 fold change | −0.081 log2 fold change | −0.162 log2 fold change | 0.141 log2 fold change | 0.338 | −0.207 log2 fold change | −0.494 | −0.128 log2 fold change | −0.306 | −0.856 log2 fold change | −2.045
7 | CN[C@H]1CC[C@@H](c2ccc(Cl)c(Cl)c2)c2ccccc21 [Sertraline HCl] | −0.026 log2 fold change | −0.227 | −0.082 log2 fold change | −0.714 | 0.052 log2 fold change | 0.450 | −0.005 log2 fold change | −0.044 | −0.048 log2 fold change | −0.076 log2 fold change | 0.023 log2 fold change | −0.021 log2 fold change | −0.079 log2 fold change | – | 0.087 log2 fold change | – | 0.066 log2 fold change | – | 0.043 log2 fold change | –
8 | CC(NC(=O)c1ccccc1/N=C/c1c(O)ccc2ccccc12)c1ccccc1 (stereo not drawn) [Sirtinol] | 0.095 log2 fold change | 0.824 | 0.000 log2 fold change | 0.002 | 0.061 log2 fold change | 0.531 | 0.078 log2 fold change | 0.679 | 0.077 log2 fold change | 0.088 log2 fold change | 0.028 log2 fold change | 0.026 log2 fold change | −0.218 log2 fold change | – | 0.009 log2 fold change | – | −0.120 log2 fold change | – | −0.078 log2 fold change | –
9 | Cc1cc2c(cc1CC(=O)c1sccc1S(=O)(=O)Nc1onc(C)c1Cl)OCO2 [Sitaxentan sodium] | 0.094 log2 fold change | 0.816 | −0.052 log2 fold change | −0.455 | 0.090 log2 fold change | 0.782 | −0.038 log2 fold change | −0.332 | −0.017 log2 fold change | −0.028 log2 fold change | 0.136 log2 fold change | −0.047 log2 fold change | 0.095 log2 fold change | – | −0.200 log2 fold change | – | −0.096 log2 fold change | – | −0.100 log2 fold change | –
10 | Nc1ccc(C(=O)[O-])c(O)c1.[Na+] [Sodium 4-Aminosalicylate] | 0.080 log2 fold change | 0.695 | 0.041 log2 fold change | 0.354 | 0.156 log2 fold change | 1.354 | 0.091 log2 fold change | 0.796 | 0.162 log2 fold change | 0.050 log2 fold change | 0.099 log2 fold change | 0.143 log2 fold change | 0.119 log2 fold change | – | 0.204 log2 fold change | – | 0.038 log2 fold change | – | 0.247 log2 fold change | –
11 | CNC(=O)c1cc(Oc2ccc(NC(=O)Nc3ccc(Cl)c(C(F)(F)F)c3)cc2)ccn1 [Sorafenib] | 0.052 log2 fold change | 0.457 | 0.060 log2 fold change | 0.520 | 0.095 log2 fold change | 0.830 | −0.021 log2 fold change | −0.180 | 0.124 log2 fold change | 0.164 log2 fold change | 0.014 log2 fold change | −0.062 log2 fold change | 0.032 log2 fold change | – | 0.165 log2 fold change | – | −0.206 log2 fold change | – | – | –
